According to paper PMC4527344 (Tetrahedron letters, 2015):
Values after ≈ are worked out from the molar mass of the structure shown. Where two headings read alike, the source gives them in different places.

Key:
[1] = Middlebrook 7H9 media supplemented with albumin, dextrose, and saline
M. tuberculosis H37Rv [2] = assay type: cell-based, Mycobacterium tuberculosis
[3] = target: enoyl acyl-carrier protein reductase (InhA); details: InhA enzymatic activity; cited from earlier work
M. tuberculosis = test: metabolomics: intramycobacterial accumulation and metabolism; assay type: cell-based, Mycobacterium tuberculosis; details: dose-dependent
M. tuberculosis H37Rv [4] = details: cited from earlier work

SMILES: CCOC(=O)CSc1nc(N)c2c3c(sc2n1)CC(C(C)(C)C)CC3 (stereo not drawn) [CD117]
- stability in growth media [1]: stable
- MIC (M. tuberculosis H37Rv [2]): 0.39 µg/mL (≈ 1.03 µM)
- IC50 [3]: 34 ± 6 µM
- permeation of the M. tuberculosis cell wall (M. tuberculosis): permeate the M. tuberculosis cell wall
- MIC (M. tuberculosis H37Rv [4]; M. tuberculosis H37Rv lab strain, previously reported): 0.39 µg/mL
- MIC (M. tuberculosis H37Rv [4]; M. tuberculosis H37Rv, 0.39 μg/mL expressed in μM): 1.0 µM
